According to patent publication US7625923B2, “Bicyclic modulators of androgen receptor function” (Bristol-Myers Squibb Company, priority 2004, dated 2009):

Experiments:
[1] = biological target: glucocorticoid receptor (endogenous, A549 cells) (Homo sapiens, UniProt P04150); details: concentration ≦10 μM; 10 ng/mL PMA; 7 h at 37° C.
Description: The AP-1 assay is a cell-based luciferase reporter assay. A549 cells, which contain endogenous glucocorticoid receptor, were stably transfected with an AP-1 DNA binding site attached to the luciferase gene. Cells are then grown in RPMI+10% fetal calf serum (charcoal-treated)+Penicillin/Streptomycin with 0.5 mg/mL geneticin. Cells are plated the day before the assay at approximately 40000 cells/well. On assay day, the media is removed by aspiration and 20 μL assay buffer (RPMI without phenol red+10% FCS (charcoal-treated)+Pen/Strep) is added to each well. At this point either 20 μL assay buffer (control experiments), the compounds of the present invention (“test compounds”) (dissolved in DMSO and added at varying concentrations) or dexamethasome (100 nM in DMSO, positive control) are added to each well. The plates are then pre-incubated for 15 min at 37° C., followed by stimulation of the cells with 10 ng/mL PMA. The plates are then incubated for 7 h at 37° C. after which 40 μL luciferase substrate reagent is added to each well. Activity is measured by analysis in a luminometer as compared to control experiments treated with buffer or dexamethasome.

[2] = biological target: T1, androgen receptor (Rattus norvegicus, UniProt P15207); details: castrated rats
T1 sequence (P15207 1-902): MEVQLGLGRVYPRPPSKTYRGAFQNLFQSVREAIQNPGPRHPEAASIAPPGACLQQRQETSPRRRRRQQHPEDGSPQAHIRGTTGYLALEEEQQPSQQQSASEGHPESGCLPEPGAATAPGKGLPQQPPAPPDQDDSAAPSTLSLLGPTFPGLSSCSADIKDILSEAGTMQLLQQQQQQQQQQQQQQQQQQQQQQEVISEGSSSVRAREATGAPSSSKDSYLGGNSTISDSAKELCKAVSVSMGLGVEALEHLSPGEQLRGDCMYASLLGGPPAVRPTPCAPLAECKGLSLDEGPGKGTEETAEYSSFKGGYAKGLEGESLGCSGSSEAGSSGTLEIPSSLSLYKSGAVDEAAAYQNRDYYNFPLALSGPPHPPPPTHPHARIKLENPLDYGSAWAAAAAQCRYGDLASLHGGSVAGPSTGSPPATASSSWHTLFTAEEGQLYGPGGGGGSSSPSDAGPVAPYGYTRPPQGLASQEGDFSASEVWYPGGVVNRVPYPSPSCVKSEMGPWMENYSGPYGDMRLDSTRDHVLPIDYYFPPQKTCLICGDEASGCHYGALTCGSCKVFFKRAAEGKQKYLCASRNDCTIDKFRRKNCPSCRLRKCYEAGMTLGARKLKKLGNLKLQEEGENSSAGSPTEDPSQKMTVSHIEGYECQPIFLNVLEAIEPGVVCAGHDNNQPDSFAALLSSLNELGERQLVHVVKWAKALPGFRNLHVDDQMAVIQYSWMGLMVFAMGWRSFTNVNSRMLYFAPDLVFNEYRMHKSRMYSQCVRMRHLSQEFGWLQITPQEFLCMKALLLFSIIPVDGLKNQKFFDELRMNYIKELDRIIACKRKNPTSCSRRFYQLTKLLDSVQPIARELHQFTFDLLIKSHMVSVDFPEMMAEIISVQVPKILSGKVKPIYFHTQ
Description: The basis of this assay lies in the well-defined action of androgenic agents on the maintenance and growth of muscle tissues and sexual accessory organs in animals and man. […] As described above, the effects of androgens on maintenance of male sexual accessory organs, such as the prostate and seminal vesicles, is well described. Castration results in rapid involution and atrophy of the prostate and seminal vesicles. This effect can be reversed by exogenous addition of androgens. Since both the levator ani muscle and the male sex organs are the tissues most responsive to the effects of androgenic agents, this model is used to determine the androgen dependent reversal of atrophy in the levator ani muscle and the sex accessory organs in immature castrated rats. Sexually mature rats (200-250 g, 6-8 weeks-old, Sprague-Dawley, Harlan) were acquired castrated from the vendor (Taconic). The rats were divided into groups and treated daily for 7 to 14 days with one of the following: • 1. Control vehicle • 2. […] TP plus Bicalutamide (administered p.o. in PEGTW, QD), a recognized antiandrogen, as a reference compound. • 4.
At the end of the 7-14-day treatment, the animals were sacrificed by carbon dioxide, and the levator ani, seminal vesicle and ventral prostate weighed. […]

[3] = system: wild type AR (MDA 453 cells); details: read-out: Kd for [3H]-DHT, Scatchard analysis, 4 h at 37° C.
Description: For the whole-cell binding assay, human LNCaP cells (T877A mutant AR) or MDA 453 (wild type AR) in 96-well microtiter plates containing RPMI 1640 or DMEM supplemented with 10% charcoal stripped CA-FBS (Cocaleco Biologicals) respectively, were incubated at 37° C. to remove any endogenous ligand that might be complexed with the receptor in the cells.
For the saturation analysis, the difference between the total binding and the non-specific binding, was defined as specific binding. […] See e.g. D. Rodbard, Mathematics and statistics of ligand assays: an illustrated guide: In: J. Langon and J. J. Clapp, eds., Ligand Assay, Masson Publishing U.S.A., Inc., New York, pp. 45-99, (1981), the disclosure of which is herein incorporated by reference.
Two replicates were used for each sample.
[formula] After correcting for non-specific binding, IC50 values were determined. […] C2C12 Mouse Myoblast Transactivation Assay

Sequence of glucocorticoid receptor (endogenous, A549 cells) (P04150 whole entry): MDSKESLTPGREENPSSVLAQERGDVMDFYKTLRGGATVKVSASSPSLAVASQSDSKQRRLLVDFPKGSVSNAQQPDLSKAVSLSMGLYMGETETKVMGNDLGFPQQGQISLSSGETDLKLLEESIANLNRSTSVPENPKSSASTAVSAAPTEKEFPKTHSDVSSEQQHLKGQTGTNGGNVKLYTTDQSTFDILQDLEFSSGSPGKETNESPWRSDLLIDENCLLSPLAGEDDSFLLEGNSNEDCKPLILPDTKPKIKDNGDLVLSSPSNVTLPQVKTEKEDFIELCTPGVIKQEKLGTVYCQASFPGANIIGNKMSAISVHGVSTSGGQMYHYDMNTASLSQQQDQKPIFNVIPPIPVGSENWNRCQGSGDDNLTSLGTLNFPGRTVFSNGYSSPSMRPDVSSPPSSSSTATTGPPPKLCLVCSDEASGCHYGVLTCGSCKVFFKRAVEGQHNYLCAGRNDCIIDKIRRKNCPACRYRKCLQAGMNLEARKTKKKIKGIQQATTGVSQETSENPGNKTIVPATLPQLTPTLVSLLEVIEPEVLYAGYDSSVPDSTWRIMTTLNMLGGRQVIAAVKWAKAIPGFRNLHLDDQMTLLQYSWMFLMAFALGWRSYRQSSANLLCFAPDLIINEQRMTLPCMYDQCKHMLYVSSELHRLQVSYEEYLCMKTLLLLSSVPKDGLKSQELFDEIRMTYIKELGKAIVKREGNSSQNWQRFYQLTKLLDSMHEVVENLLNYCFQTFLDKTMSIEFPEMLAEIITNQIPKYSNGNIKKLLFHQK

C[C@@H]1C[C@H]2[C@@H]3CCC4=CC(=O)C=C[C@]4(C)[C@@]3(F)[C@@H](O)C[C@]2(C)[C@@]1(O)C(=O)CO [dexamethasone]
% inhibition of the AP-1 reporter system vs buffer control with PMA alone [1]: 65%

CCC(=O)O[C@H]1CC[C@H]2[C@@H]3CCC4=CC(=O)CC[C@]4(C)[C@H]3CC[C@]12C [testosterone propionate, Testosterone Propionate]
EC50 (increase in organ weight) [2]: ~0.03 mg

tritiated dihydrotestosterone [[^3H]-DHT]
Kd [3]: 700 pM
